Bridge positions count the residues as written; N and C are the ends. Ends that are not written are not given here. I, II: the chains in the order shown.
Legend:
THP-1 cells = assay: IL-6 levels in LPS-stimulated THP-1 cells, 6 h (Example 1); type: cell-based, human; settings: for % IL-6 secretion level compared to LPS-stimulated control: THP-1, 1 μg/μl LPS for 6 h, + above, − below LPS-only control (100%); for Release of cytokines, including pro-inflammatory cytokines such as IL-6, TNF-alpha, and IL-8: pre-treatment of cells with peptide
Procedure: The modulatory function of peptides SG #4, SG #8, SG #13, and SG #14 on the expression levels of IL-6 in the human acute monocytic leukaemia cell line THP-1 was examined. THP-1 cells were maintained in RPMI 1640 supplemented with 10% FBS, 100 U/ml penicillin, 100 μg/ml streptomycin and 2 mM L-glutamine at 37° C. in a 5% CO2 incubator. THP-1 cells are known to induce IL-6, TNFα, IL-10 and IL-8 mRNA and protein in response to lipopolysaccharide (LPS) treatment. THP-1 cells were left untreated or incubated with 0 uM, 7.5 μM, 15 μM, 30 μM, 60 μM or 100 μm of each of the peptides, and stimulated with […] LPS for 6 h, based on previous analyses to find the optimal dose and incubation times.
(−) inhibition indicates percentage (%) of inhibition as compared to only LPS treated samples (arbitrarily set at 100%).

female BALB/c mice = assay: Anti-ovalbumin IgG1 ELISA after in vivo immunization of mice (Example 3); settings: s.c. day 1 and day 14, 5 μg SG#4 + 50/25 μg ovalbumin per animal, serum at day 21
From the text: Chicken ovalbumin has been used to trigger T cell activation in immunology studies. Ovalbumin immunized mice produce anti-OVA antibodies predominantly of the IgG1 and IgE isotypes that mediate tissue-specific effector functions in multiple mouse models. Thus, it is often desirable to measure anti-OVA antibody levels in the plasma or serum to determine the effectiveness of the immunization/induction of a TH2-mediated immune response. Here, we tested the effectiveness of the SG #4 peptide in inducing of a TH2-mediated immune response in female BALB/c mice. The study agents contained Ovalbumin alone, peptide construct SG #4 alone or ovalbumin in combination with SG #4. […]
An ELISA assay was carried out according to the manufacturer's protocol, as follows. […] This Goat Anti-mouse IgG1 was labeled with HRP, allowing quantification of the […]. Addition of the HRP Substrate 3,3′,5,5′-tetramethylbenzidine (TMB), following by Stop Solution produces a yellow colored product which was measured spectrophotometrically. […] 1 mL of the top standard concentration (250 pg/mL anti-ovalbumin IgG1 quantification) was prepared in 1× Assay Diluent A (1×AD) from the anti-ovalbumin IgG1 stock solution. […] Using computer reduction software, absorbance (linear y-axis) for standard versus concentration (linear x-axis) is plotted and data is fitted with a quadratic equation. […]

Sequence | % IL-6 secretion level compared to LPS-stimulated control (THP-1 cells; 7.5 μM peptide) | % IL-6 secretion level compared to LPS-stimulated control (THP-1 cells; 15 μM peptide) | % IL-6 secretion level compared to LPS-stimulated control (THP-1 cells; 30 μM peptide) | % IL-6 secretion level compared to LPS-stimulated control (THP-1 cells; 60 μM peptide) | % IL-6 secretion level compared to LPS-stimulated control (THP-1 cells; 100 μM peptide) | Release of cytokines, including pro-inflammatory cytokines such as IL-6, TNF-alpha, and IL-8 (THP-1 cells) | Induction of immune response (anti-ovalbumin IgG1) versus ovalbumin alone (female BALB/c mice)
LQNRRGLGLSILLNEELQNRRGL (Mutated sequence) [SG#14] | −2.981% | −0.4476% | +0.7403% | +28.52% | +15.21% | promotes the release of cytokines | 
LQNRRGLGLSILLNC (disulfide I:15-II:15 (inferred)) [SG#4] | +12.99% | +20.76% | +38.19% | +36.39% | +13.27% | promotes the release of cytokines | significantly higher induction of immune response
LQNRRGLGLSILLNEE (Mutated sequence) [SG#13] | −5.765% | +6.907% | −5.286% | +8.616% | +36.98% | promotes the release of cytokines | 
LQNKRGLGLSILLNEECGPGPGP (disulfide I:17-II:17 (inferred)) [SG#8] | +1.472% | +14.54% | +6.835% | +7.655% | +20.86% | promotes the release of cytokines | 

From patent US11072638B2, “Immunostimulating peptides” (AIMVION A/S, priority 2016, dated 2021)
